For orientation: IC50 means the point on the concentration scale where inhibition reaches its midpoint. Read a high IC50 as weaker potency in that assay.

This note sets out measurements from patent US20210230123A1, “INHIBITORS OF ALPHA-AMINO-BETA-CARBOXYMUCONIC ACID SEMIALDEHYDE DECARBOXYLASE” (TES Pharma S.r.l., priority 2016, published 2021).

This experiment deals with T1, hACMSD (Homo sapiens, UniProt Q8TDX5).
T1 construct: made in house; host or cells: Pichia pastoris
T1 sequence (Q8TDX5 whole entry): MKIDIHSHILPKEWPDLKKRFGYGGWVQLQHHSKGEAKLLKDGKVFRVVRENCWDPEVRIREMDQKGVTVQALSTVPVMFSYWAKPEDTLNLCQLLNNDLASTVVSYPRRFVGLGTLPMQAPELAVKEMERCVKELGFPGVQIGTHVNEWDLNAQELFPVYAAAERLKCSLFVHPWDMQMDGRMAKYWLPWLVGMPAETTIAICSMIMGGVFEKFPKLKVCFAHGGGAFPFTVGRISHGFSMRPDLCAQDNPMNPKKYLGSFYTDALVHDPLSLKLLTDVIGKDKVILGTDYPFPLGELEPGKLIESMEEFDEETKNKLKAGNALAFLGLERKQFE
The experiment is described as follows: Determination of ACMSD1 inhibition (spectrophotometrical in vitro assay). To be noted: HAA concentration of 10 μM, 25° C. It is filed as biochemical. How it is done:
The activity of compounds as inhibitors of ACMSD1 is determined in a spectrophotometrical in vitro assay. The pre-assay mixture is incubated and a compound of Formula (I), Formula (Ia), Formula (Ib), Formula (Ic), Formula (Id), Formula (Ie), Formula (If), Formula (Ig), Formula (Ih), Formula (Ii), Formula (Ij), Formula (II), Formula (IIa), Formula (IIb), Formula (IIc), Formula (IId), Formula (IIe), Formula (IIf), Formula (IIg), Formula (IIh), Formula (IIi), Formula (IIj), Formula (IIk), and Formula (IIl), or a pharmaceutically acceptable salt thereof, and ACMSD1 solution is then added. The effect of ACMS concentration on the enzyme activity is investigated by varying 3-hydroxyanthranilic acid (30H-HA) concentration in the pre-assay mixture. Kinetic parameters are calculated from the initial velocity data using a Lineweaver-Burk plot.
The inhibition activity of ACMSD1 of compounds disclosed herein was determined by measuring the conversion of 30H-Anthranilic Acid into product (i.e., ACMS) in a spectrophotometrical in vitro assay.
The pre-assay mixture consisting of 3-hydroxyanthranilic acid (30H-HA), 3-hydroxyanthranilic acid, 3,4-diOxygenase (HAO), and a dialyzed crude extract of E. coli BL21 (DE3) cells expressing the recombinant enzyme, was incubated at 25° C. with monitoring of the increase in absorbance at 360 nm due to the formation of ACMS from 30H-HA. After the reaction was completed within 2 mins, an aliquot of ACMSD1 solution (prepared and purified from Pichia Pastoris overexpressing the recombinant enzyme) was added, and the decrease in absorbance at 360 nm was followed at 15 second intervals. The effect of ACMS concentration on the enzyme activity was investigated by varying 30H-HA concentration from 2 to 20 µM. Kinetic parameters were calculated from the initial velocity data by using the Lineweaver-Burk plot.
The rate of the decrease in absorbance caused by ACMSD1 was calculated by subtracting that of the control reaction mixture without ACMSD from that described above. One unit of ACMSD activity was indicated as the amount of enzyme that converts 1 mmol of ACMS per minute at 25° C. The absence or a reduction of ACMSD1 activity (e.g., by using ACMSD inhibitors) results in a slow ACMS-spontaneous degradation (i.e., cyclization to form quinolic acid).
The enzymatic activity was determined at a HAA concentration of 10 μM in the presence of the compounds in Table 1 below. The compounds were tested at the concentration of about […] and 10 μM and the IC50 was calculated for compounds showing inhibitory activity higher than 500.
Take `COc1cccc(/C=C/c2[nH]c(=S)[nH]c(=O)c2C#N)c1` [I-10, (E)-6-(3-methoxystyryl)-4-oxo-2-thioxo-1,2,3,4-tetrahydropyrimidine-5-carbonitrile]: the concentration for half-maximal inhibition (IC50) lay in the range of 100 to 1000 nM.
Then `N#Cc1c(/C=C/c2ccccc2OCC(=O)O)[nH]c(=S)[nH]c1=O` [I-6, (E)-2-(2-(2-(5-cyano-6-oxo-2-thioxo-1,2,3,6-tetrahydropyrimidin-4-yl)vinyl)phenoxy)acetic acid], with 100 to 1000 nM; and `N#Cc1c(/C=C/c2ccccc2-c2cc(F)c(O)c(F)c2)[nH]c(=O)[nH]c1=O` [I-4, (E)-6-(2-(3′,5′-difluoro-4′-hydroxy-[1,1′-biphenyl]-2-yl)vinyl)-2,4-dioxo-1,2,3,4-tetrahydropyrimidine-5-carbonitrile], with 100 to 1000 nM; and `N#Cc1c(-c2cccc(-c3cccc(C(=O)O)c3)c2)[nH]c(=S)[nH]c1=O` [I-16, 3′-(5-cyano-6-oxo-2-thioxo-1,2,3,6-tetrahydropyrimidin-4-yl)-[1,1′-biphenyl]-3-carboxylic acid], with 100 to 1000 nM.
In turn, `N#Cc1c(/C=C/c2cccc(OCC(=O)O)c2)[nH]c(=O)[nH]c1=O` [I-3, (E)-2-(3-(2-(5-cyano-2,6-dioxo-1,2,3,6-tetrahydropyrimidin-4-yl)vinyl)phenoxy)acetic acid] had an IC50 of 1000 to 2000 nM.
Take `COc1cccc(/C=C/c2[nH]c(=S)[nH]c(=O)c2C#N)c1OC(C)(C)C(=O)O` [I-8, (E)-2-(2-(2-(5-cyano-6-oxo-2-thioxo-1,2,3,6-tetrahydropyrimidin-4-yl)vinyl)-6-methoxyphenoxy)-2-methylpropanoic acid]: the half-inhibitory concentration (IC50) was 100 to 1000 nM.
Then `COc1cccc(/C=C/c2[nH]c(=S)[nH]c(=O)c2C#N)c1OC(C)C(=O)O` (stereo not shown) [I-9, (E)-2-(2-(2-(5-cyano-6-oxo-2-thioxo-1,2,3,6-tetrahydropyrimidin-4-yl)vinyl)-6-methoxyphenoxy)propanoic acid], with 100 to 1000 nM; and `COc1cccc(/C=C/c2[nH]c(=O)[nH]c(=O)c2C#N)c1OCC(=O)O` [I-2, (E)-2-(2-(2-(5-cyano-2,6-dioxo-1,2,3,6-tetrahydropyrimidin-4-yl)vinyl)-6-methoxyphenoxy)acetic acid], with 100 to 1000 nM.
As to `CCOc1cc(/C=C/c2[nH]c(=O)[nH]c(=O)c2[N+](=O)[O-])ccc1OCC(=O)O` [I-17, (E)-2-(2-ethoxy-4-(2-(5-nitro-2,6-dioxo-1,2,3,6-tetrahydropyrimidin-4-yl)vinyl)henoxy)acetic acid], the IC50 fell in the range of 1000 to 2000 nM.
Then `COc1cccc(/C=C/c2nc(SC)[nH]c(=O)c2C#N)c1OCC(=O)O` [I-15, (E)-2-(2-(2-(5-cyano-2-(methylthio)-6-oxo-1,6-dihydropyrimidin-4-yl)vinyl)-6-methoxyphenoxy)acetic acid], with 100 to 1000 nM.
